Measurements: paper PMC9226124, “Macrocycle-stabilization of its interaction with 14-3-3 increases plasma membrane localization and activity of CFTR” (Nature Communications, 2022)
“And” between values parts separate entries of the source, which are not always exact repeats. Identical values can stand only once.

Tests used:
Assay type in all cases: binding
14-3-3β/BAD peptide = biological target: T1, 14-3-3β/BAD peptide (Homo sapiens, UniProt P31946); assay: FP assay of 14-3-3 partner protein peptide, BAD; conditions: for FP signal: BAD peptide, CY007424 100 μM
T1 construct: His6 (cleaved yes); made in house
T1 sequence (P31946 1-246): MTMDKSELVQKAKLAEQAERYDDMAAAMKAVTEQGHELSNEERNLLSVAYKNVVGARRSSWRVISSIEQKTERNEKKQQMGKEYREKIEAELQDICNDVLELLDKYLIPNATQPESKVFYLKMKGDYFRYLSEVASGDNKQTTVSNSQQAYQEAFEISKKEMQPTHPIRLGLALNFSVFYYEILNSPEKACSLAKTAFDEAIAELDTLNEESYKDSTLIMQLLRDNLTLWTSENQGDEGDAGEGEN
Description: (§1) The FITC-labeled peptides were dissolved in FP buffer (10 mM HEPES pH 7.4, 150 mM NaCl, 0.1% Tween20, 1 mg/mL BSA) to a final concentration of 100 nM or 10 nM. For the dose-response assays, a 14-3-3β concentration of 10 μM was used while titrating the compounds in a two-times dilution series and, for the other assays, a dilution series of 14-3-3β was made with constant concentration of compound. The dilution series were made in 384 Corning Black Round Bottom well plates and their polarization was measured with a Tecan Infinite F500 plate reader (ex. = 485 nm, em. = 535 nm). The method of fitting of the curves was: “log(agonist) vs. response – Variable slope (four parameters)” from GraphPad Prism. The equation is Y = Bottom + (Top-Bottom)/(1 + 10^((LogEC50-X)*HillSlope)).
(§2) Supplementary Figure 2. Stabilization of the interaction between 14-3-3β and a collection of different 14-3-3 partner protein peptides by CY00742 4. […] Background polarization was subtracted from all values, n=3 technical replicates. Source data are provided as a Source Data file.
(§3) (1 picture or pasted object on this page, not shown here)

14-3-3β/p53 peptide = biological target: T2, 14-3-3β/p53 peptide (Homo sapiens, UniProt P31946); assay: FP assay of 14-3-3 partner protein peptide, p53; conditions: CY007424 100 μM
T2 construct: His6 (cleaved yes); made in house
T2 sequence (P31946 1-246): T1 sequence (P31946 1-246)
Description: as §1, §2, §3

14-3-3β/IRS1 peptide = biological target: T3, 14-3-3β/IRS1 peptide (Homo sapiens, UniProt P31946); assay: FP assay of 14-3-3 partner protein peptide, IRS1; conditions: 100 µM compound
T3 construct: His6 (cleaved yes); made in house
T3 sequence (P31946 1-246): T1 sequence (P31946 1-246)
Description: as §1, §2, §3

## N=C(N)NCCCC1NCc2ccccc2Sc2ccccc2CNC(=O)C(Cc2ccc(O)cc2)NC(=O)C(CCCN)NC1=O (centres unmarked) [CY007424]
14-3-3β/BAD peptide; 100 µM compound
  stabilization of the 14-3-3/BAD peptide complex: some stabilization of the complex
14-3-3β/BAD peptide; 14-3-3β 2.44141e-7 M
  FP signal: 59.3333
14-3-3β/BAD peptide; 14-3-3β 4.88281e-7 M
  FP signal: 76.3333 and 74.3333 and 80.3333
14-3-3β/BAD peptide; 14-3-3β 9.76563e-7 M
  FP signal: 77.3333 and 83.3333 and 79.3333
14-3-3β/BAD peptide; 14-3-3β 1.95313e-6 M
  FP signal: 81.3333 and 79.3333 and 82.3333
14-3-3β/BAD peptide; 14-3-3β 3.90625e-6 M
  FP signal: 74.3333 and 75.3333
14-3-3β/p53 peptide; 14-3-3β 59.6 pM
  FP signal: 4 and 3
14-3-3β/p53 peptide; 14-3-3β 119.2 pM
  FP signal: 4 and 3
14-3-3β/p53 peptide; 14-3-3β 3.8147e-9 M
  FP signal: 4 and 7
14-3-3β/p53 peptide; 14-3-3β 7.62939e-9 M
  FP signal: 7 and 6 and 4
14-3-3β/p53 peptide; 14-3-3β 1.52588e-8 M
  FP signal: 5 and 3 and 4
14-3-3β/p53 peptide; 14-3-3β 3.05176e-8 M
  FP signal: 3 and 5 and 4
14-3-3β/p53 peptide; 14-3-3β 6.10352e-8 M
  FP signal: 10 and 9
14-3-3β/p53 peptide; 14-3-3β 1.2207e-7 M
  FP signal: 13 and 15
14-3-3β/p53 peptide; 14-3-3β 2.44141e-7 M
  FP signal: 15 and 18
14-3-3β/p53 peptide; 14-3-3β 4.88281e-7 M
  FP signal: 20 and 24 and 21
14-3-3β/p53 peptide; 14-3-3β 9.76563e-7 M
  FP signal: 21 and 25 and 23
14-3-3β/p53 peptide; 14-3-3β 1.95313e-6 M
  FP signal: 20 and 22 and 21
14-3-3β/p53 peptide; 14-3-3β 3.90625e-6 M
  FP signal: 21 and 20
14-3-3β/p53 peptide; 14-3-3β 7.8125e-6 M
  FP signal: 24 and 20 and 21
14-3-3β/p53 peptide; 14-3-3β 1.5625e-5 M
  FP signal: 17 and 22 and 25
14-3-3β/p53 peptide; 14-3-3β 3.125e-5 M
  FP signal: 26 and 24 and 29
14-3-3β/p53 peptide; 14-3-3β 6.25e-5 M
  FP signal: 31 and 32 and 34
14-3-3β/p53 peptide; 14-3-3β 0.000125 M
  FP signal: 44 and 45 and 48
14-3-3β/p53 peptide; 14-3-3β 0.00025 M
  FP signal: 66 and 67 and 63
14-3-3β/IRS1 peptide
  stabilization of the 14-3-3/IRS1 peptide complex: some stabilization of the complex
